Results as given in US20240043404A1 (AbbVie Inc., priority 2009, published 2024).
Like-named read-outs stand apart in the source and are kept apart here.

Test system: RS4;11 cells
Assay: RS4;11 cell viability assay (CellTiter Glo);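 further: acute lymphoblastic leukemia line RS4,11, EC50 derived from percentage of viable cells after treatment relative to untreated controls, cell killing taken as a measure of Bcl-2 inhibition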
Assay type: cell-based, human
Details: Homo sapiens, read-out: RS4
[1] = RS4-11, 48 h, 50,000 cells per well, 10% human serum, 48 hours, 11 EC50 Values
[2] = RS4-11, Table 5, direct comparison Z=N with corresponding analogs Z=C, 11 EC50

Protocol: The acute lymphoblastic leukemia (ALL) cell line RS4;11 was used as the primary human cell line to assess the cellular activity of Bcl-2 selective agents in vitro and their efficacy in vivo.
Cell cytotoxicity EC50 values were assessed using CellTiter Glo (Promega) according to the manufacturer's recommendations. The EC50 values were determined as a percentage of viable cells following treatment compared to the untreated control cells.

## CC1(C)CCC(CN2CCN(c3ccc(C(=O)NS(=O)(=O)c4ccc(NCC5CCOCC5)c(S(=O)(=O)C(F)(F)F)c4)c(Oc4cnc5[nH]ccc5c4)c3)CC2)=C(c2ccc(Cl)cc2)C1 [Example 17, 4-(4-{[2-(4-chlorophenyl)-4,4-dimethylcyclohex-1-en-1-yl]methyl}piperazin-1-yl)-2-(1H-pyrrolo[2,3-b]pyridin-5-yloxy)-N-({4-[(tetrahydro-2H-pyran-4-ylmethyl)amino]-3-[(trifluoromethyl)sulfonyl]phenyl}sulfonyl)benzamide]
[1]
  EC50: 475 nM
[2]
  EC50: 475 nM

## CC1(C)CCC(CN2CCN(c3ccc(C(=O)NS(=O)(=O)c4cnc(OCC5CCC(F)(F)CC5)c(Cl)c4)c(Oc4cnc5[nH]ccc5c4)c3)CC2)=C(c2ccc(Cl)cc2)C1 [Example 287, N-({5-chloro-6-[(4,4-difluorocyclohexyl)methoxy]pyridin-3-yl}sulfonyl)-4-(4-{[2-(4-chlorophenyl)-4,4-dimethylcyclohex-1-en-1-yl]methyl}piperazin-1-yl)-2-(1H-pyrrolo[2,3-b]pyridin-5-yloxy)benzamide]
[1]
  EC50: 593 nM

## CC1(C)CCC(CN2CCN(c3ccc(C(=O)NS(=O)(=O)c4ccc(OCC5(F)CCNCC5)c([N+](=O)[O-])c4)c(Oc4cnc5[nH]ccc5c4)c3)CC2)=C(c2ccc(Cl)cc2)C1 [Example 127, 4-(4-{[2-(4-chlorophenyl)-4,4-dimethylcyclohex-1-en-1-yl]methyl}piperazin-1-yl)-N-({4-[(4-fluoropiperidin-4-yl)methoxy]-3-nitrophenyl}sulfonyl)-2-(1H-pyrrolo[2,3-b]pyridin-5-yloxy)benzamide]
[1]
  EC50: 9.75 nM

## COCC(=O)N1CCC(COc2ccc(S(=O)(=O)NC(=O)c3ccc(N4CCN(CC5=C(c6ccc(Cl)cc6)CC(C)(C)CC5)CC4)cc3Oc3cnc4[nH]ccc4c3)cc2Cl)CC1 [Example 294, N-[(3-chloro-4-{[1-(methoxyacetyl)piperidin-4-yl]methoxy}phenyl)sulfonyl]-4-(4-{[2-(4-chlorophenyl)-4,4-dimethylcyclohex-1-en-1-yl]methyl}piperazin-1-yl)-2-(1H-pyrrolo[2,3-b]pyridin-5-yloxy)benzamide]
[1]
  EC50: 125 nM

## CC1CN(c2ccc(C(=O)NS(=O)(=O)c3ccc(NCC4CCOCC4)c([N+](=O)[O-])c3)c(Oc3cnc4[nH]ccc4c3)c2)CCN1CC1=C(c2ccc(Cl)cc2)CC(C)(C)CC1 (stereo not drawn) [Example 290, 4-(4-{[2-(4-chlorophenyl)-4,4-dimethylcyclohex-1-en-1-yl]methyl}-3-methylpiperazin-1-yl)-N-({3-nitro-4-[(tetrahydro-2H-pyran-4-ylmethyl)amino]phenyl}sulfonyl)-2-(1H-pyrrolo[2,3-b]pyridin-5-yloxy)benzamide]
[1]
  EC50: 107 nM

## CCN1CCOCC1COc1ccc(S(=O)(=O)NC(=O)c2ccc(N3CCN(CC4=C(c5ccc(Cl)cc5)CC(C)(C)CC4)CC3)cc2Oc2cnc3[nH]ccc3c2)cc1[N+](=O)[O-] (stereo not drawn) [Example 103, 4-(4-{[2-(4-chlorophenyl)-4,4-dimethylcyclohex-1-en-1-yl]methyl}piperazin-1-yl)-N-({4-[(4-ethylmorpholin-3-yl)methoxy]-3-nitrophenyl}sulfonyl)-2-(1H-pyrrolo[2,3-b]pyridin-5-yloxy)benzamide]
[1]
  EC50: 39.2 nM

## CC1(C)CCC(CN2CCN(c3ccc(C(=O)NS(=O)(=O)c4ccc(NC[C@H]5CCCOC5)c([N+](=O)[O-])c4)c(Oc4ccc5[nH]ccc5c4)c3)CC2)=C(c2ccc(Cl)cc2)C1 [Example 22, 4-(4-{[2-(4-chlorophenyl)-4,4-dimethylcyclohex-1-en-1-yl]methyl}piperazin-1-yl)-2-(1H-indol-5-yloxy)-N-[(3-nitro-4-{[(3R)-tetrahydro-2H-pyran-3-ylmethyl]amino}phenyl)sulfonyl]benzamide]
[1]
  EC50: 85 nM
[2]
  EC50: 85 nM

## CC1(C)CCC(CN2CCN(c3ccc(C(=O)NS(=O)(=O)c4ccc(N[C@H]5CC[C@H](NS(C)(=O)=O)CC5)c([N+](=O)[O-])c4)c(Oc4cnc5[nH]ccc5c4)c3)CC2)=C(c2ccc(Cl)cc2)C1 [Example 189, Trans-4-(4-{[2-(4-chlorophenyl)-4,4-dimethylcyclohex-1-en-1-yl]methyl}piperazin-1-yl)-N-{[4-({4-[(methylsulfonyl)amino]cyclohexyl}amino)-3-nitrophenyl]sulfonyl}-2-(1H-pyrrolo[2,3-b]pyridin-5-yloxy)benzamide]
[1]
  EC50: 144 nM

## O=C(NS(=O)(=O)c1ccc(NCC2CN(C3CC3)CCO2)c([N+](=O)[O-])c1)c1ccc(N2CCN(CC3=C(c4ccc(Cl)cc4)CC4(CC3)CC4)CC2)cc1Oc1cnc2[nH]ccc2c1 (stereo not drawn) [Example 330, 4-(4-{[5-(4-chlorophenyl)spiro[2.5]oct-5-en-6-yl]methyl}piperazin-1-yl)-N-[(4-{[(4-cyclopropylmorpholin-2-yl)methyl]amino}-3-nitrophenyl)sulfonyl]-2-(1H-pyrrolo[2,3-b]pyridin-5-yloxy)benzamide]
[1]
  EC50: 9.78 nM

## CC1(C)CCC(CN2CCN(c3ccc(C(=O)NS(=O)(=O)c4ccc(NCC5CN(C6CC6)CCO5)c(Cl)c4)c(Oc4cnc5[nH]ccc5c4)c3)CC2)=C(c2ccc(Cl)cc2)C1 (stereo not drawn) [Example 332, N-[(3-chloro-4-{[(4-cyclopropylmorpholin-2-yl)methyl]amino}phenyl)sulfonyl]-4-(4-{[2-(4-chlorophenyl)-4,4-dimethylcyclohex-1-en-1-yl]methyl}piperazin-1-yl)-2-(1H-pyrrolo[2,3-b]pyridin-5-yloxy)benzamide]
[1]
  EC50: 457 nM

## CC1(C)CCC(CN2CCN(c3ccc(C(=O)NS(=O)(=O)c4ccc(NCCCN5CCOCC5)c([N+](=O)[O-])c4)c(Oc4cnc5[nH]ccc5c4)c3)CC2)=C(c2ccc(Cl)cc2)C1 [Example 55, 4-(4-{[2-(4-chlorophenyl)-4,4-dimethylcyclohex-1-en-1-yl]methyl}piperazin-1-yl)-N-({4-[(3-morpholin-4-ylpropyl)amino]-3-nitrophenyl}sulfonyl)-2-(1H-pyrrolo[2,3-b]pyridin-5-yloxy)benzamide]
[1]
  EC50: 13.2 nM

## CC1(C)CCC(CN2CCN(c3ccc(C(=O)NS(=O)(=O)c4ccc(N[C@H]5CCN(C6CC6)C5)c([N+](=O)[O-])c4)c(Oc4cnc5[nH]ccc5c4)c3)CC2)=C(c2ccc(Cl)cc2)C1 [Example 142, 4-(4-{[2-(4-chlorophenyl)-4,4-dimethylcyclohex-1-en-1-yl]methyl}piperazin-1-yl)-N-[(4-{[(3S)-1-cyclopropylpyrrolidin-3-yl]amino}-3-nitrophenyl)sulfonyl]-2-(1H-pyrrolo[2,3-b]pyridin-5-yloxy)benzamide]
[1]
  EC50: 345 nM

## COCCOc1ncc(S(=O)(=O)NC(=O)c2ccc(N3CCN(CC4=C(c5ccc(Cl)cc5)CC(C)(C)CC4)CC3)cc2Oc2cnc3[nH]ccc3c2)cc1Cl [Example 292, N-{[5-chloro-6-(2-methoxyethoxy)pyridin-3-yl]sulfonyl}-4-(4-{[2-(4-chlorophenyl)-4,4-dimethylcyclohex-1-en-1-yl]methyl}piperazin-1-yl)-2-(1H-pyrrolo[2,3-b]pyridin-5-yloxy)benzamide]
[1]
  EC50: 889 nM

## CC1(C)CCC(CN2CCN(c3ccc(C(=O)NS(=O)(=O)c4cnc(OCC5CCN(c6nccs6)CC5)c(Cl)c4)c(Oc4cnc5[nH]ccc5c4)c3)CC2)=C(c2ccc(Cl)cc2)C1 [Example 375, 4-(4-{[2-(4-chlorophenyl)-4,4-dimethylcyclohex-1-en-1-yl]methyl}piperazin-1-yl)-N-[(5-chloro-6-{[1-(1,3-thiazol-2-yl)piperidin-4-yl]methoxy}pyridin-3-yl)sulfonyl]-2-(1H-pyrrolo[2,3-b]pyridin-5-yloxy)benzamide]
[1]
  EC50: 560 nM

## CC1(C)CCC(CN2CCN(c3ccc(C(=O)NS(=O)(=O)c4ccc(OCC5(F)CCOCC5)c(C(F)(F)F)c4)c(Oc4cnc5[nH]ccc5c4)c3)CC2)=C(c2ccc(Cl)cc2)C1 [Example 307, 4-(4-{[2-(4-chlorophenyl)-4,4-dimethylcyclohex-1-en-1-yl]methyl}piperazin-1-yl)-N-({4-[(4-fluorotetrahydro-2H-pyran-4-yl)methoxy]-3-(trifluoromethyl)phenyl}sulfonyl)-2-(1H-pyrrolo[2,3-b]pyridin-5-yloxy)benzamide]
[1]
  EC50: 128 nM

## COCCN1CCCC(CNc2ccc(S(=O)(=O)NC(=O)c3ccc(N4CCN(CC5=C(c6ccc(Cl)cc6)CC(C)(C)CC5)CC4)cc3Oc3cnc4[nH]ccc4c3)cc2[N+](=O)[O-])C1 (stereo not drawn) [Example 228, 4-(4-{[2-(4-chlorophenyl)-4,4-dimethylcyclohex-1-en-1-yl]methyl}piperazin-1-yl)-N-{[4-({[1-(2-methoxyethyl)piperidin-3-yl]methyl}amino)-3-nitrophenyl]sulfonyl}-2-(1H-pyrrolo[2,3-b]pyridin-5-yloxy)benzamide]
[1]
  EC50: > 1000 nM

## CC1(C)CCC(CN2CCN(c3ccc(C(=O)NS(=O)(=O)c4ccc(NCC5CN(C6CC6)CCO5)c([N+](=O)[O-])c4)c(Oc4cnc5[nH]ccc5c4)c3)CC2)=C(c2ccc(Cl)cc2)C1 (stereo not drawn) [Example 218, 4-(4-{[2-(4-chlorophenyl)-4,4-dimethylcyclohex-1-en-1-yl]methyl}piperazin-1-yl)-N-[(4-{[(4-cyclopropylmorpholin-2-yl)methyl]amino}-3-nitrophenyl)sulfonyl]-2-(1H-pyrrolo[2,3-b]pyridin-5-yloxy)benzamide]
[1]
  EC50: 7.29 nM

## CC1(C)CCC(CN2CCN(c3ccc(C(=O)NS(=O)(=O)c4ccc(OC[C@H]5CC[C@H](O)CC5)c(Cl)c4)c(Oc4cnc5[nH]ccc5c4)c3)CC2)=C(c2ccc(Cl)cc2)C1 [Example 305, N-({3-chloro-4-[(trans-4-hydroxycyclohexyl)methoxy]phenyl}sulfonyl)-4-(4-{[2-(4-chlorophenyl)-4,4-dimethylcyclohex-1-en-1-yl]methyl}piperazin-1-yl)-2-(1H-pyrrolo[2,3-b]pyridin-5-yloxy)benzamide]
[1]
  EC50: 32.5 nM

## CC1(C)CCC(CN2CCN(c3ccc(C(=O)NS(=O)(=O)c4ccc(NCC(F)(F)F)c([N+](=O)[O-])c4)c(Oc4cnc5[nH]ccc5c4)c3)CC2)=C(c2ccc(Cl)cc2)C1 [Example 26, 4-(4-{[2-(4-chlorophenyl)-4,4-dimethylcyclohex-1-en-1-yl]methyl}piperazin-1-yl)-N-({3-nitro-4-[(2,2,2-trifluoroethyl)amino]phenyl}sulfonyl)-2-(1H-pyrrolo[2,3-b]pyridin-5-yloxy)benzamide]
[1]
  EC50: 58.9 nM
